Read-outs that look alike come from different tables or passages of the source.
How the values were obtained:
[1] = DPPH radical-scavenging effect; conditions: 30 min; DPPH• 10^−4 M in MeOH; mean ± SEM, n = 3; read-out: DPPH-Scavenging Effect SC50
Procedure: The 2,2-diphenyl-1-picrylhydrazyl (DPPH^•) radical-scavenging effect of polyphenolic compounds 7–11 was determined as described in [24]. Polyphenolic compounds 7, 8, 9, 10, and 11 were added to DPPH^• solution in MeOH (10^−4 M) at concentrations from 6 to 34 µM. The reacting mixture was kept in the dark for 30 min at room temperature. Then, we measured the absorbance at 517 nm using a Shimadzu UV 1240 spectrophotometer (Shimadzu, Kyoto, Japan). Equation (1) was used to calculate the DPPH^• radical-scavenging effect (%):(1) DPPH^• scavenging effect,%=A0−Ax/A0 where A0 is the absorbance of DPPH^• solution of a blank sample (without polyphenolic compounds); AX is the absorbance of DPPH^• solution in the presence of different concentrations of polyphenolic compounds.
Quercetin was used as a reference compound. All experiments were performed in triplicate. We calculated the half-maximal scavenging concentration (SC50) for polyphenolic compounds by plotting the DPPH^• scavenging effect (%) against the concentrations of polyphenolic compounds. SC50 values are given as the mean value ± SEM.

[2] = Ferric reducing antioxidant power (FRAP) assay; conditions: 4 min, absorbance 595 nm; mean ± SEM, n = 3
Procedure: We performed the FRAP assay as described in [29]. We prepared the FRAP reagent by mixing 2.5 mL of TPTZ (2,4,6-tris(2-pyridyl)-s-triazine) solution (10 mM) in 40 mM HCl and 25 mL of FeCl3 solution (20 mM) in acetate buffer solution (300 mM, pH 3.6). Polyphenolics 7–11 were added to 3 mL of FRAP reagent at concentrations from 6 to 34 µM. The mixture was kept in the dark at room temperature for 4 min. Then, we measured the absorbance at 595 nm using a Shimadzu UV 1240 spectrophotometer. Equation (2) was used to calculate the FRAP values for polyphenolic compounds 7–11:(2) FRAP=CFe/Cx where CFe is the concentration of Fe^2+ (µM) formed in the reaction; CX is the concentration of polyphenolic compounds in the reacting mixture.
The concentration of Fe^2+ (µM) formed in the reaction was determined using the calibration curve obtained for different concentrations of FeSO4·7H2O.

[3] = Cytotoxicity, MTT assay; assay type: cell-based, murine; conditions: mouse, Neuro-2a neuroblastoma cells, read-out: Cytotoxic activity EC50
Procedure: The murine neuroblastoma cell line Neuro-2a (CCL-131) was purchased from American Type Culture Collection (ATCC®) (Manassas, VA, USA). Cells were cultured in Dulbecco’s Modified Eagle Medium (Biolot, St. Petersburg, Russia). The medium contained 10% fetal bovine serum (Biolot, St. Petersburg, Russia) and 1% penicillin/streptomycin (Biolot, St. Petersburg, Russia). Cells were incubated at 37 °C in a humidified atmosphere containing 5% (v/v) CO2.
Stock solutions of polyphenolic compounds were prepared in DMSO at a concentration of 10 mM. […]
We incubated Neuro-2a cells (1 × 10^4 cells/well) at 37 °C in a CO2 incubator for 24 h until they formed an adherent monolayer. Then, 20 μL of the tested solution was loaded onto the cells and incubated for 24 h. After incubation, the medium containing the polyphenolic test compounds was replaced by 100 μL of fresh medium. Then, we added 10 μL of MTT (3-(4,5-dimethylthiazol-2-yl)-2,5-diphenyltetrazolium bromide) (Sigma-Aldrich, St. Louis, MO, USA) stock solution (5 mg/mL) to each well and incubated the microplate for 4 h. Then, 100 μL of SDS-HCl solution (1 g SDS/10 mL dH2O/17 μL 6 M HCl) was added to each well, followed by incubation for 18 h. We measured the absorbance of the converted dye formazan on a Multiskan FC microplate photometer (Thermo Scientific, Waltham, MA, USA) at a wavelength of 570 nm. We performed all experiments in triplicate and expressed the cytotoxic activity as percent of living cells.

[4] = tested on: 6-OHDA-treated Neuro-2a cells; assay: 6-OHDA-induced neurotoxicity, cell viability (MTT); assay type: cell-based, murine; conditions: 6-OHDA 80 µM, p < 0.05
Procedure: (§1) After 24 h of adhesion, Neuro-2a cells (1 × 10^4 cells/well) were treated with polyphenolic compounds at concentrations of 0.01–10 μM for 1 h. Subsequently, 1 mM of PQ, 10 μM rotenone or 80 μM of 6-OHDA (Sigma-Aldrich, St. Louis, MO, USA) were added. We used MTT assay to determine the percentage of living cells (cell viability) after 24 h of incubation. Cells incubated without inductors or with inductors were used as positive and negative control, respectively. The results are presented as percentages of the positive control value.

[5] = tested on: 6-OHDA-treated Neuro-2a cells; assay: ROS level in 6-OHDA-treated cells (H2DCF-DA); assay type: cell-based, murine; conditions: 6-OHDA 80 µM, 1 h; H2DCF-DA
Procedure: (§2) After 24 h of adhesion, Neuro-2a cells (1 × 10^4 cells/well) were incubated with compounds (0.01–10 µM) for 1 h. Then, we added rotenone (10 μM), 6-OHDA (80 μM), or PQ (1 mM) to each well and incubated cells for 1 h, 1 h, or 3 h, respectively. To evaluate the level of intracellular ROS, we added 20 µL of 2,7-dichlorodihydrofluorescein diacetate solution ([…], H2DCF-DA, Molecular Probes, Eugene, OR, USA) to each well, so that the final concentration was 10 µM, and incubated the microplate at 37 °C for an additional 30 min. Quercetin was used as a reference compound.

[6] = tested on: rotenone-treated Neuro-2a cells; assay: Rotenone-induced neurotoxicity, cell viability (MTT); assay type: cell-based, murine; conditions: for Increase in percentage of living cells after treatment with rotenone compared to rotenone-treated cells: rotenone 10 µM, MTT, p < 0.05
Procedure: as §1

[7] = tested on: rotenone-treated Neuro-2a cells; assay: ROS level in rotenone-treated cells (H2DCF-DA); assay type: cell-based, murine; conditions: rotenone 10 µM, 1 h
Procedure: as §2

[8] = tested on: LPS- and Aβ-induced neurotoxicity; design: method as in PMID 21708076; conditions: cited from earlier work
[9] = tested on: TNF-α, IL-1, and IL-6; design: method as in PMID 21708076; conditions: cited from earlier work
[10] = tested on: cerebral global-ischemia model; conditions: cited from earlier work
[11] = tested on: rats; design: method as in PMID 31693927, doi:10.1016/j.jff.2017.05.002; conditions: cited from earlier work
[12] = tested on: 6-OHDA-exposed worms; design: method as in PMID 32585871; conditions: cited from earlier work
[13] = tested on: α-synuclein; design: method as in PMID 32585871; conditions: cited from earlier work
[14] = tested on: MAO-B; design: method as in PMID 27575476, PMID 32087226; conditions: cited from earlier work
[15] = tested on: MAO-A; design: method as in PMID 27575476, PMID 32087226; conditions: cited from earlier work
[16] = tested on: RAW 264.7 macrophages; design: method as in PMID 25592708; conditions: cited from earlier work
[17] = tested on: 5-lipoxygenase; design: method as in PMID 28506902; conditions: cited from earlier work
[18] = tested on: PQ-treated Neuro-2a cells; assay: PQ-induced neurotoxicity, cell viability (MTT); assay type: cell-based, murine; conditions: PQ 1 mM; for Effect on percentage of living cells after treatment with PQ: compounds 0.01–10 μM, 1 h pre-treatment, MTT after 24 h
Procedure: as §1

[19] = tested on: PQ-treated Neuro-2a cells; assay: ROS level in PQ-treated cells (H2DCF-DA); assay type: cell-based, murine; conditions: PQ 1 mM, 3 h
Procedure: as §2

[20] = design: method as in PMID 31004693; conditions: 30 min; mean ± SEM, n = 3; previously published; read-out: DPPH-Scavenging Effect SC50; cited from earlier work
[21] = design: method as in PMID 31004693; conditions: mean ± SEM, n = 3; previously published; cited from earlier work
[22] = tested on: human triple-negative breast cancer HTB-19; design: method as in PMID 32087226; conditions: cited from earlier work
[23] = tested on: esophageal squamous cell carcinoma Kyse-30; design: method as in PMID 32087226; conditions: cited from earlier work
[24] = tested on: hepatocellular carcinoma HEPG-2; design: method as in PMID 32087226; conditions: cited from earlier work
[25] = tested on: retina pigmented epithelium cells RPE-1; design: method as in PMID 32087226; conditions: RPE-1 normal cell line; cited from earlier work
[26] = tested on: human embryonic kidney cells HEK-293; design: method as in PMID 32087226; conditions: HEK-293 normal cell line; cited from earlier work

CC(C)=CCC[C@@]1(C)C=Cc2c(c(O)cc3c2oc2c4ccc(O)cc4oc(=O)c32)O1 [Compound 10, lespebicoumestan A]
EC50 [1]: 22.7 ± 3.5 µM | FRAP [2]: 1.75 ± 0.20 mol (Fe^2+)/mol (polyphenolic compound X) | EC50 at 24 h [3]: 44 µM | Increase in percentage of living cells after 6-OHDA treatment versus 6-OHDA-treated cells [4]: 10.9% | Effect on ROS levels in 6-OHDA-treated cells [5]: significantly decreased | Increase in percentage of living cells after treatment with rotenone compared to rotenone-treated cells [6]: 13.2% | Effect on ROS levels in rotenone-treated cells [7]: did not significantly decrease

O=c1oc2cc(O)ccc2c2oc3cc(O)ccc3c12 [Coumestrol]
Neurotoxicity induced by LPS and amyloid-beta peptide (Aβ) [8]: attenuated | Production of inflammatory cytokines TNF-α, IL-1, and IL-6 [9]: inhibited | Neuroprotection in a cerebral global-ischemia model [10]: effective neuroprotection | Mitochondrial activity [11]: modulated | Oxidative stress [11]: decreased

CC(C)=CCC[C@@]1(C)C=Cc2c(c(O)cc3c4c(oc23)-c2ccc(O)cc2OC4)O1 [Compound 9, lespedezol A3]
EC50 [1]: 13.5 ± 1.2 µM | EC50 at 24 h [3]: 75 µM | Increase in percentage of living cells after 6-OHDA treatment versus 6-OHDA-treated cells [4]: 31.4% | Effect on ROS levels in 6-OHDA-treated cells [5]: significantly decreased | Increase in percentage of living cells after treatment with rotenone compared to rotenone-treated cells [6]: 10.4% | Effect on ROS levels in rotenone-treated cells [7]: did not significantly decrease

Oc1ccc2c(c1)OC[C@H]1c3cc4c(cc3O[C@@H]21)OCO4 [maackiain]
Dopaminergic neuron damage [12]: significantly reduce | Accumulation of α-synuclein [13]: diminish | Inhibition of MAO-B [14]: selectively inhibited | Inhibition of MAO-A [15]: did not effectively inhibit | LPS-induced nitric oxide production [16]: inhibitory effects | Inhibition of 5-lipoxygenase [17]: inhibited

CC(C)=CCC/C(C)=C/Cc1c(O)c(O)cc2c1O[C@H]1c3cc(CC=C(C)C)c(O)cc3OC[C@@H]21 [Compound 6, (6aR,11aR)-2-isoprenyl-6a,11a-dihydrolespedezol A2]
EC50 at 24 h [3]: 40.6 µM | Effect on percentage of living cells after treatment with PQ [18]: significantly increased | Concentration range in which the neuroprotective effect was detected ([18]; MTT): 0.01 to 1 µM | Increase in percentage of living cells after treatment with PQ ([18]; compound 1 μM, MTT): 17% | Effect on ROS level in PQ-treated cells [19]: slightly decreased | EC50 [20]: 21.8 ± 2 µM | FRAP [21]: 1.43 ± 0.06 mol (Fe^2+)/mol (polyphenolic compound X)

CC(C)=CCC/C(C)=C/Cc1c(O)c(O)cc2c3c(oc12)-c1ccc(O)cc1OC3 [Compound 4, lespedezol A2]
EC50 at 24 h [3]: 76 µM | Effect on percentage of living cells after treatment with PQ [18]: did not exhibit any effect | Increase in percentage of living cells after 6-OHDA treatment versus 6-OHDA-treated cells [4]: 7.0% | Effect on ROS levels in 6-OHDA-treated cells [5]: significantly decreased | EC50 [20]: 18 ± 0.2 µM | FRAP [21]: 2.78 ± 0.18 mol (Fe^2+)/mol (polyphenolic compound X) | Cytotoxicity [22]: rather cytotoxic | Cytotoxicity [23]: rather cytotoxic | Cytotoxicity [24]: rather cytotoxic | Cytotoxicity [25]: rather cytotoxic | Cytotoxicity [26]: rather cytotoxic

C=C(C)[C@H]1Cc2c(ccc3c2O[C@@H]2COc4cc(OC)c(OC)cc4[C@@H]2C3=O)O1 [rotenone, reference compound]
Percentage of living Neuro-2a cells compared to the control ([6]; rotenone 10 µM alone): 68%

Source: paper PMC9025851, “Polyphenolic Compounds from Lespedeza bicolor Protect Neuronal Cells from Oxidative Stress” (Antioxidants, 2022)
